This note sets out measurements from ChEMBL document CHEMBL3507680, “University of Dundee, Gates Library screen for HepG2 cell viability”.

This data set is described as follows: Human HepG2 cell viability assay in 384 well format. In kind it is toxicity, cell-based. Further details: dose 125 nL, time 70.5 hour; concentration not given beside the values. The note with it: HepG2 cells, read-out: Inhibition.
`Cc1nccc(N[C@H]2CN(C(=O)CCN3CCCC3=O)C[C@@H]2C(C)C)n1`: the cytotoxicity at 70.5 h was -19.6%.

With `O=C1CCCCCN1Cc1cccc(OC(F)F)c1`, the cytotoxicity at 70.5 h is -5.05%.

In the case of `O=C(O)c1cnc(N2CC[C@H](N3CCOCC3)[C@H](CCCO)C2)c(Cl)c1`, the cytotoxicity at 70.5 h was -7.02%.

Turning to `O=C(NCCc1cnccn1)C1(N2CCCCC2)Cc2ccccc2C1`, the cytotoxicity at 70.5 h was -8.18%.

As to `Cc1cc(C)c2c(N3CCN(C(=O)N(C)C)CC3)ncnc2n1`, the cytotoxicity at 70.5 h was -3.44%.

For the compound `CN(Cc1n[nH]c2c1CCC2)C(=O)c1cccc(CCC(C)(C)O)c1`, the cytotoxicity at 70.5 h was determined as 1.92%.

In the case of `Cc1cccc2[nH]c(C3CCCN3Cc3ccc(CO)o3)nc12` (configuration not stated), the cytotoxicity at 70.5 h was -9.7%.

For the compound `CCc1[nH]c2c(CNC(=O)C3CNC(=O)C3)cc(C)cc2c1C` (configuration not stated), the cytotoxicity at 70.5 h is -11.3%.

Take `Cc1nc2c(c(NCC(c3cccnc3)N3CCOCC3)n1)CCNC2` (configuration not stated): the cytotoxicity at 70.5 h is -15.5%.

As to `OCC1(O)CCCN(Cc2noc(-c3ccccc3)n2)CC1` (configuration not stated), the cytotoxicity at 70.5 h was determined as 26.3%.

For `Cc1nonc1CN(C)Cc1nc(-c2ccccc2Cl)oc1C`, the cytotoxicity at 70.5 h was -7.91%.

Consider `CCN1CCC(Cn2ccc3ccc(C(=O)OC)cc3c2=O)C1` (configuration not stated), for which the cytotoxicity at 70.5 h is -6.6%.

Take `COCCCN1C(=O)CC[C@H]2CN(c3cnc4ccccc4n3)CC[C@H]21`: the cytotoxicity at 70.5 h is 25%.

For `N#Cc1ccccc1C(=O)NCCC1CN(Cc2ccco2)CCO1` (configuration not stated), the cytotoxicity at 70.5 h is 2.72%.

`NC(=O)c1cc2c(nc1-c1ccoc1)CCC2`: the cytotoxicity at 70.5 h was -6.2%.

Consider `CC1(C)CN(CCC(=O)NCc2cccc(Cl)c2)CC[C@]1(C)O`, for which the cytotoxicity at 70.5 h is -9.57%.

For `Cc1cc(C(=O)N2CCCC(c3nccn3Cc3ccncc3)C2)no1` (configuration not stated), the cytotoxicity at 70.5 h was -12.9%.

As to `CCC(O)CNc1nccc(-c2ccc(C)nc2C)n1` (configuration not stated), the cytotoxicity at 70.5 h is -14.6%.

Turning to `CC(C(=O)O)N1CC2(CCC1=O)CCN(CCc1ccccc1)CC2` (configuration not stated), the cytotoxicity at 70.5 h is -11%.

In the case of `Clc1ccc(CN2CCC(C3CCN(Cc4cccnc4)CC3)C2)cc1` (configuration not stated), the cytotoxicity at 70.5 h was -2.87%.

Regarding `CCCSCC(=O)N1C[C@H]2CC[C@@H]1CN(c1ncccn1)C2`, the cytotoxicity at 70.5 h was -14.1%.

`Cc1nnsc1CN1C[C@@H]2CC[C@H](C1)N(Cc1ccccc1)C2`: the cytotoxicity at 70.5 h stood at 8.69%.

For the compound `O=C(CSCC1CC1)N1CCc2[nH]nc(COc3ccccc3)c2C1`, the cytotoxicity at 70.5 h was -6.96%.

Regarding `Cc1nc2sccn2c1C(=O)N1CCn2nc(C(=O)NC3CC3)cc2C1`, the cytotoxicity at 70.5 h is -11.6%.

For the compound `Cc1cc(C(=O)N2CCc3[nH]nc(-c4ccc5c(c4)OCO5)c3C2)no1`, the cytotoxicity at 70.5 h came out at 1.25%.

With `CCc1cccc(OCCN(C)C(=O)c2ccccc2NCC(=O)O)c1`, the cytotoxicity at 70.5 h is -13.6%.

For `CSCCCN1CCN(c2ccc(Cl)cn2)CC1`, the cytotoxicity at 70.5 h is -5.7%.

Take `CC(C)=CCC1(C(=O)O)CCCN(c2ccnc(C)n2)C1` (configuration not stated): the cytotoxicity at 70.5 h is -3.8%.

For the compound `COCC1(C(=O)N[C@H]2CN(c3nnc(C)s3)C[C@@H]2C2CC2)CCC1`, the cytotoxicity at 70.5 h was 7.64%.

Regarding `CCN(Cc1nc(COC)no1)C[C@]1(O)CCCN2CCCC[C@@H]21`, the cytotoxicity at 70.5 h was -10.1%.

Regarding `Cc1nc(NCCSc2nnc(C)s2)c2cccnc2n1`, the cytotoxicity at 70.5 h is -14.5%.

Consider `CN(C)CCn1ccnc1C1CCN(C(=O)CCc2ccncc2)CC1`, for which the cytotoxicity at 70.5 h was -5.61%.

Consider `CN1CCCN(C[C@@H]2CN(C(=O)CC3CCC3)C[C@@H]2CO)CC1`, for which the cytotoxicity at 70.5 h is -2.25%.

In the case of `CNC(=O)c1noc(Cn2ncc3ccccc3c2=O)n1`, the cytotoxicity at 70.5 h amounted to 0.589%.

With `CCCc1nc(C(=O)N2CCN(C(=O)OC)CC2)cs1`, the cytotoxicity at 70.5 h was -4.71%.

For the compound `COc1cc(C)ccc1C(=O)N1CCC2(CCC(=O)N(C(C)C)C2)CC1`, the cytotoxicity at 70.5 h was -4.16%.

Take `COc1ccc(C2(C(=O)N3CC(c4cccnc4)C3)CC2(C)C)cc1` (configuration not stated): the cytotoxicity at 70.5 h was -0.294%.

As to `CCN1CC2(CCN(C(=O)C3CSC(C)(C)C(=O)N3)CC2)CC1=O` (configuration not stated), the cytotoxicity at 70.5 h is -6.11%.

With `Cc1ccc2nc(C3CCCN3Cc3nnc(C)s3)[nH]c2c1` (configuration not stated), the cytotoxicity at 70.5 h came to 26.6%.

`CCc1nnc(CN(C)C(=O)C2CC(=O)N(C3CC3)C2)o1` (configuration not stated): the cytotoxicity at 70.5 h is -6.39%.

As for `CCCn1cc(-c2ccnc(NC3CCCc4ccccc43)n2)c(C)n1` (configuration not stated), the cytotoxicity at 70.5 h was 18.9%.

As to `Cc1cc2nc(C(C)C)cc(N[C@H](C(N)=O)C(C)C)n2n1`, the cytotoxicity at 70.5 h came to 32.4%.

Turning to `Cc1ccc2nc(-c3nc4c([nH]3)CCCNC4=O)cn2c1`, the cytotoxicity at 70.5 h is -10.1%.

In the case of `CC(=O)NCC1CCC2(CCN(c3ncc(C)cn3)CC2)O1` (configuration not stated), the cytotoxicity at 70.5 h was -3.04%.

Consider `COc1ccc(-n2cccn2)cc1S(=O)(=O)N1C[C@H](C2CC2)[C@@H](N)C1`, for which the cytotoxicity at 70.5 h was -3.3%.

As for `Cc1cccc(C(C(=O)NCc2nc(-c3cccnc3)no2)N(C)C)c1` (configuration not stated), the cytotoxicity at 70.5 h turned out to be 19.5%.

In the case of `CCc1cnc(NCC(C)Oc2cccnc2)nc1` (configuration not stated), the cytotoxicity at 70.5 h is -5.39%.

As for `CCc1cc(N[C@H]2CCC[C@H]2O)n2nccc2n1`, the cytotoxicity at 70.5 h was found to be 7.67%.

Regarding `CN1CCCN(C[C@H]2C[C@H](CO)CN(Cc3cccnc3N)C2)CC1`, the cytotoxicity at 70.5 h came out at 22.4%.

On to `COC(=O)NCC(=O)N1CCCCC1c1nc2cc(F)ccc2[nH]1` (configuration not stated), for which the cytotoxicity at 70.5 h was found to be 1.25%.

As to `COCC[C@]1(O)CCN(C(=O)CCn2c(C)cccc2=O)C[C@H]1C`, the cytotoxicity at 70.5 h stood at 12.1%.

`CN(Cc1n[nH]c2c1CCC2)C(=O)CCc1cc2n(n1)CCNC2`: the cytotoxicity at 70.5 h is -4.27%.

`O=C(NCCc1csc(-c2ccncc2)n1)C1CC(=O)N(C2CC2)C1` (configuration not stated): the cytotoxicity at 70.5 h was -3.67%.

Regarding `CC[C@H](C)[C@@H](CO)NC(C)Cc1ccccc1F` (some centres not stated), the cytotoxicity at 70.5 h is -2.57%.

For the compound `Cn1c(-c2cc3n(n2)CCCN(CC(=O)O)C3)nc2ccccc21`, the cytotoxicity at 70.5 h was determined as 22.8%.

In the case of `CCCn1cc(S(=O)(=O)N[C@H]2CN(CCO)C[C@@H]2C2CC2)cn1`, the cytotoxicity at 70.5 h was -7.84%.

Turning to `Cc1ccc(OCC2CCCN(C(=O)Cn3ccccc3=O)C2)cc1` (configuration not stated), the cytotoxicity at 70.5 h came to 25%.

As to `CCNc1ncc(C(=O)N2Cc3nc(C)[nH]c(=O)c3C2)cn1`, the cytotoxicity at 70.5 h is 4.44%.

Regarding `CC(C)(C)n1cc(C2=CCN(CCNC(N)=O)CC2)cn1`, the cytotoxicity at 70.5 h was -0.0754%.

For the compound `CN1CCC(N(CCc2ccccc2)C(=O)c2ccc(CO)cc2)CC1`, the cytotoxicity at 70.5 h is -11.1%.

For `NCCn1cc(C(=O)NCc2ccccc2-n2cccn2)nn1`, the cytotoxicity at 70.5 h is -4.33%.

With `COCc1c(C(=O)N2CCCC(C(=O)c3ccccc3)C2)noc1C` (configuration not stated), the cytotoxicity at 70.5 h is -3.85%.

Take `Cn1cc2ncn(CCNc3cccnc3)c(=O)c2n1`: the cytotoxicity at 70.5 h is -3.81%.

For the compound `Cc1cc(C(=O)N2C[C@H]3CC[C@@H]2CN(C)C3)ccc1Cl`, the cytotoxicity at 70.5 h turned out to be 29.4%.

As for `OCCO[C@H]1C[C@@H](O)C12CCN(Cc1nc(C(F)(F)F)no1)CC2`, the cytotoxicity at 70.5 h is -8.19%.

As to `CSc1ncc(C(=O)N2C[C@@H](NC(C)=O)[C@H](c3ccc(C)cc3)C2)cn1`, the cytotoxicity at 70.5 h was -5.41%.

Regarding `CO[C@H]1CN(C(C)C)C[C@@H]1NC(=O)c1cc(-c2ccccc2O)n[nH]1`, the cytotoxicity at 70.5 h is -1.03%.

Turning to `Cc1nc(CNC(=O)CC2C(=O)NCCN2CCC(C)C)n[nH]1` (configuration not stated), the cytotoxicity at 70.5 h is -8.3%.

`COc1ccccc1OC1(C(=O)O)CCN(c2cc(C)nc(C)c2)CC1`: the cytotoxicity at 70.5 h is -0.575%.

Consider `O=C(C1CCC1)N1CC[C@]2(O)CCN(Cc3ncccn3)C[C@@H]2C1`, for which the cytotoxicity at 70.5 h is -9.87%.

Turning to `COCCC1CCCCN1Cc1nc(Cc2cccc(F)c2)no1` (configuration not stated), the cytotoxicity at 70.5 h was -2.75%.

Consider `CSCC(=O)N1CCc2c(cnc(C)c2-c2noc(-c3cc[nH]n3)n2)C1`, for which the cytotoxicity at 70.5 h was -12.6%.

As for `Cc1ccc(C)c(OC(C)C(=O)NCCNc2cccnc2)c1` (configuration not stated), the cytotoxicity at 70.5 h is -0.127%.

Regarding `COCCN(C)C[C@@H]1CN(C(=O)c2ccc(O)c(Cl)c2)C[C@@H]1CO`, the cytotoxicity at 70.5 h was -4.52%.

Turning to `CN(C)[C@H]1CN(C(=O)c2ccc3sc4c(c3c2)CCNC4=O)C[C@@H]1O`, the cytotoxicity at 70.5 h was -1.45%.

On to `CCCc1nnc(N2CCN(c3ccccc3OCC)CC2)o1`, for which the cytotoxicity at 70.5 h is -4.12%.

Consider `C/C(=C\c1ccco1)CN(C)C(C)Cc1ccccn1` (configuration not stated), for which the cytotoxicity at 70.5 h came out at 16%.

As for `CCOc1ccccc1C(=O)N1CCCC(c2nccn2CCOC)C1` (configuration not stated), the cytotoxicity at 70.5 h was 10.7%.

As for `CCc1nnc(NCc2cccc(OC)c2OC)o1`, the cytotoxicity at 70.5 h was 8.49%.

Take `Cc1ccnc(NCc2cn3nc(C)sc3n2)n1`: the cytotoxicity at 70.5 h came out at 1.46%.

`COc1ccc(-n2ncc(C(C)NC3Cc4ccccc4C3)c2C)cc1` (configuration not stated): the cytotoxicity at 70.5 h amounted to 5.61%.

Consider `CCc1cc(CN(C)Cc2nc(-c3ccc(OC)cc3F)oc2C)on1`, for which the cytotoxicity at 70.5 h is -5.4%.

Turning to `Cc1nc(N2CCCN(C(=O)c3ccsc3)CC2)c2cnn(C)c2n1`, the cytotoxicity at 70.5 h was -2.94%.

`CCCNC(=O)NC(=O)CNC(C)(C)c1ccc2c(c1)OCO2`: the cytotoxicity at 70.5 h is -0.993%.

In the case of `Cn1cc(C(=O)N2CCN(c3ncccn3)CC2)ccc1=O`, the cytotoxicity at 70.5 h was -2.44%.

In the case of `CC(c1nc(C2CC2)no1)N1CCN(CCN2CCCC2=O)CC1` (configuration not stated), the cytotoxicity at 70.5 h is -0.249%.

`O=C(CC1CCCO1)N1CCCN(c2cccnn2)CC1` (configuration not stated): the cytotoxicity at 70.5 h is -3.32%.

For `CCc1cnc(CN(C)C2CCN(Cc3nnc(C4CC4)n3C)C2)o1` (configuration not stated), the cytotoxicity at 70.5 h is -2.36%.

For `CC(C)(NCC(=O)NC(=O)NC1CC1)c1ccc2c(c1)OCO2`, the cytotoxicity at 70.5 h is -3.04%.

For `Cc1ccc(N2CCCN(C(=O)C3CCCO3)CC2)nn1` (configuration not stated), the cytotoxicity at 70.5 h came to 4.49%.

Take `CCc1noc(C(C)N2CCN(CCN3CCCC3=O)CC2)n1` (configuration not stated): the cytotoxicity at 70.5 h is -2.78%.

With `COc1cccc(N2CCC(CNCc3cccc(C#N)c3)C2)c1` (configuration not stated), the cytotoxicity at 70.5 h stood at 9.04%.

Take `Cc1cnn(CC2CCCN2Cc2nnc(-c3ccccc3)o2)c1` (configuration not stated): the cytotoxicity at 70.5 h is -4.64%.

For `CC(C)n1cc(CN2CCCN(C(=O)C3CCOC3)CC2)cn1` (configuration not stated), the cytotoxicity at 70.5 h is 19.9%.

In the case of `Cc1nc(C)n(CC2CCCN(Cc3ccccc3C#N)C2)n1` (configuration not stated), the cytotoxicity at 70.5 h is 22.8%.

In the case of `COc1cc(CNCc2c(C)nn(CC(C)C)c2N(C)C)ccn1`, the cytotoxicity at 70.5 h was determined as 27.3%.

Turning to `COc1c(C)cc(CNCc2ccnc(N3CCOCC3)c2)cc1C`, the cytotoxicity at 70.5 h was determined as 2.82%.
